The text below walks through data of publication PMC7822874, “Chemoprotective antimalarials identified through quantitative high-throughput screening of Plasmodium blood and liver stage parasites” (Scientific Reports, 2021).

The test system of data set [1] is P. berghei-ANKA-GFP-LucCON liver stage parasites in HepG2-A16-CD81EGFP cells. The data set is described as follows: P. berghei liver stage Pb-Luc assay, Method 1 (UCSD, 1536-well). The format is cell-based, Plasmodium berghei. The following applies: for activity at 1 µM / activity at 3 µM: Plasmodium berghei, 48 h.
A short description of data set [2]: in vitro. To be noted: human, n = 1.
The test system of data set [3] is Plasmodium falciparum Dd2 asexual blood stage parasites. In words: microbe, parasite or virus in culture. The following applies: Plasmodium falciparum, DD2, Erythrocyte, 72 h; read-out: AC50. Also noted: species or system Plasmodium falciparum Dd2 in human erythrocytes; single determination (one 11-point concentration-response curve).
For another data set, the system named is HepG2-A16-CD81EGFP cells. The following applies: average of 2 wells; for HepG2 1uM growth rep1 / HepG2 1uM growth rep2: HepG2, 1 µM compound treatment (10 mM stocks); for HepG2 1uM growth rep1 / HepG2 3uM growth rep1: replicate 1, normalized; for HepG2 1uM growth rep2 / HepG2 3uM growth rep2: replicate 2, normalized; for HepG2 3uM growth rep1 / HepG2 3uM growth rep2: HepG2, 3 µM compound treatment (10 mM stocks); for HepG2 viability signal, 3 uM, repeat 2: nominal 3 uM (10 mM stock), 4.5 uM for 15 mM, 3.6 uM for 12 mM, 6 uM for 20 mM stock.

Data set [4] concerns T1, Plasmodium falciparum Dd2-attB (parental line), asexual blood stages.
T1 construct: Dd2-attB, the isogenic parental line
In words: microbe, parasite or virus in culture. On the set-up: replicate k of 3 (each line is one of three independent assays; the three lines of one compound and parasite line follow each other). To be noted: n = 1. Summed up:
(§1)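 Only some compounds were profiled here. Each was assayed three independent times against the Dd2-attB parent and its yeast-DHODH-overexpressing derivative.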

Data set [5] relates to T2, Plasmodium falciparum Dd2-attB-ScDHODH (transgenic line expressing yeast DHODH), asexual blood stages.
T2 construct: Dd2-attB-ScDHODH, the transgenic line that expresses yeast DHODH
In words: organism not typed. On the set-up: replicate k of 3 (each line is one of three independent assays; the three lines of one compound and parasite line follow each other). The following applies: 72 h, n = 1. In a few lines: as §1

A short description of data set [6]: in vitro. The following applies: human, HepG2-A16-CD81EGFP cells, uninfected.
[7] abbreviates: P. berghei liver stage, 1 µM compound treatment (10 mM stocks), replicate 1, normalized, average of 2 wells on a 1536 well plate, read-out: PbLuc 1uM growth rep1.
Where [8] appears, read: P. berghei liver stage, 1 µM compound treatment (10 mM stocks), replicate 2, normalized, average of 2 wells on a 1536 well plate, read-out: PbLuc 1uM growth rep2.
Setting [9] is: P. berghei liver stage, 3 µM compound treatment (10 mM stocks), replicate 1, normalized, average of 2 wells on a 1536 well plate, read-out: PbLuc 3uM growth rep1.
The mark [10] stands for this setting: P. berghei liver stage, 3 µM compound treatment (10 mM stocks), replicate 2, normalized, average of 2 wells on a 1536 well plate, read-out: PbLuc 3uM growth rep2.
[11] abbreviates: nominal 1 uM (10 mM stock), […] for 15 mM, 1.2 uM for 12 mM, 2 uM for 20 mM stock, average of 2 wells, 1536-well plate, repeat 1, read-out: Pb-Luc signal, 1 uM, repeat 1.
[12] abbreviates: nominal 1 uM (10 mM stock), […] for 15 mM, 1.2 uM for 12 mM, 2 uM for 20 mM stock, average of 2 wells, 1536-well plate, repeat 2, read-out: Pb-Luc signal, 1 uM, repeat 2.
[13] abbreviates: nominal 1 uM (10 mM stock), […] for 15 mM, 1.2 uM for 12 mM, 2 uM for 20 mM stock, average of 2 wells, 1536-well plate, repeat 3, read-out: Pb-Luc signal, 1 uM, repeat 3.
Where [14] appears, read: nominal 3 uM (10 mM stock), 4.5 uM for 15 mM, 3.6 uM for 12 mM, 6 uM for 20 mM stock, average of 2 wells, 1536-well plate, repeat 1, read-out: Pb-Luc signal, 3 uM, repeat 1.
[15] abbreviates: nominal 3 uM (10 mM stock), 4.5 uM for 15 mM, 3.6 uM for 12 mM, 6 uM for 20 mM stock, average of 2 wells, 1536-well plate, repeat 2, read-out: Pb-Luc signal, 3 uM, repeat 2.
Setting [16] is: nominal 3 uM (10 mM stock), 4.5 uM for 15 mM, 3.6 uM for 12 mM, 6 uM for 20 mM stock, average of 2 wells, 1536-well plate, repeat 3, read-out: Pb-Luc signal, 3 uM, repeat 3.
[17] abbreviates: nominal 1 uM (10 mM stock), […] for 15 mM, 1.2 uM for 12 mM, 2 uM for 20 mM stock.

Read-outs that look alike come from different tables or passages of the source.

`O=C(CCl)Nc1cccc(-c2cnc3ccccc3n2)c1` [MLS000541295-01]: the activity at 1 µM in data set [1] (setting [7]) worked out at 128%. In addition, the activity at 1 µM in data set [1] (setting [8]) was found to be 119%. In addition, the activity at 3 µM in data set [1] (setting [9]) is 151%. For the same compound, the activity at 3 µM in data set [1] (setting [10]) was found to be 185%. In addition, in “in vitro [2]” (HepG2 cells), the CC50 at 48 h turned out to be 13.7 µM. For the same compound, the AC50 in data set [3] came out at 6.68 µM. Further, in the data set with HepG2-A16-CD81EGFP cells, the “HepG2 1uM growth rep1” value is 90%, the “HepG2 1uM growth rep2” value is given as 88%, the “HepG2 3uM growth rep1” value was determined as 89% and the “HepG2 3uM growth rep2” value was 88%.

Turning to `COc1ccc(C2C=C(c3ccc(Cl)cc3)Nc3nc(-c4ccc(Cl)cc4)nn32)cc1` (centres unmarked) [NCGC00100531-01], the “Max Resp (signal direction of the dose response)” value in data set [1] (Method 1, Decrease = decreasing P. berghei viability with dose, Increase = increasing signal, Inactive = no dose response) is given as “Inactive”. The activity at 1 µM in data set [1] (setting [11]) was 88.1%; in data set [1] (setting [12]) it was 81%; in data set [1] (setting [13]), 70.8%. In addition, the activity at 3 µM in data set [1] (setting [14]) is 5.3%; in data set [1] (setting [15]) it was 3.16%; in data set [1] (setting [16]), 51.4%. In addition, the CC50 at 48 h in the data set “in vitro [2]” (hepg2) amounted to 15.3 µM. Besides, the AC50 in data set [3] came to 0.237 µM. Besides, the “HepG2 viability signal, 1 uM, repeat 1” value in the data set on HepG2-A16-CD81EGFP cells (nominal 1 uM (10 mM stock), […] for 15 mM, 1.2 uM for 12 mM, 2 uM for 20 mM stock, repeat 1) was 97.18%. For the same compound, the “HepG2 viability signal, 1 uM, repeat 2” value in the data set with HepG2-A16-CD81EGFP cells (setting [17]) turned out to be 96.07%. Also, the “HepG2 viability signal, 3 uM, repeat 2” value in the data set on HepG2-A16-CD81EGFP cells worked out at 80.71%.

With `Oc1c(CNc2ccccc2)cc(COCc2ccccc2)c2cccnc12` [NCGC00183370-01], the “Individual replicates / Log AC50 (M)” value is listed as -5.0486 Log AC50 (M) in data set [4] (72 h) and -4.7986 Log AC50 (M) in data set [5]. Besides, the AC50 in data set [4] (Plasmodium falciparum, DD2, 72 h, read-out: Individual replicates / Log AC50 (converted)) was 11.3 µM; in data set [5] (read-out: Individual replicates / Log AC50 (converted)), 14.2 µM. In the data set “in vitro [2]” (HepG2 cells), this compound displayed a CC50 at 48 h of 21.7 µM.

As to `O=C(Nc1ncccc1O)c1ccc(NS(=O)(=O)c2ccc3[nH]c(=O)[nH]c3c2)cc1` [MLS001138628-01], the activity at 1 µM in data set [1] (setting [7]) turned out to be 61%. Moreover, the activity at 1 µM in data set [1] (setting [8]) turned out to be 57%. For the same compound, the activity at 3 µM in data set [1] (setting [9]) stood at 21%. Besides, the activity at 3 µM in data set [1] (setting [10]) worked out at 25%. For the same compound, the CC50 at 48 h in “in vitro [2]” (HepG2 cells) was found to be 21.7 µM. Also, the AC50 in data set [3] turned out to be 0.422 µM. In the data set on HepG2-A16-CD81EGFP cells, the “HepG2 1uM growth rep1” value came out at 110%, the “HepG2 1uM growth rep2” value is listed as 100%, the “HepG2 3uM growth rep1” value is 89% and the “HepG2 3uM growth rep2” value was 93%.

`O=C(N/N=C(/c1ccccc1)c1cccnc1)c1cccc(F)c1` [MLS001224623-01]: the activity at 1 µM in data set [1] (setting [7]) came out at 10%. Moreover, the activity at 1 µM in data set [1] (setting [8]) worked out at 9%. The activity at 3 µM in data set [1] (setting [9]) is 6.61%. Further, in data set [1] (setting [10]), the activity at 3 µM amounted to 8%. In “in vitro [2]” (HepG2 cells), this compound showed a CC50 at 48 h of 12.2 µM. Further, the AC50 in data set [3] turned out to be 4.22 µM. Further, in the data set with HepG2-A16-CD81EGFP cells, the “HepG2 1uM growth rep1” value is listed as 68%, the “HepG2 1uM growth rep2” value is recorded as 59%, the “HepG2 3uM growth rep1” value is listed as 30% and the “HepG2 3uM growth rep2” value was 34%.

For orientation: viability means a per cent measure of how many cells are alive, often set against a control. With `COc1ccc(CN[C@@H]2C=C[C@@H](c3c(C)nn(-c4ccc(OC)cc4)c3C)C2)cc1` [NCGC00401425-01], the activity at 1 µM in data set [1] (setting [11]) was 79.1%; in data set [1] (setting [12]), 135%; in data set [1] (setting [13]) it was 59%. Besides, the activity at 3 µM in data set [1] (setting [14]) is 56.4%; in data set [1] (setting [15]) it was 76.7%; in data set [1] (setting [16]) it was 51.8%. Also, the CC50 at 48 h in the data set “in vitro [2]” (HepG2 cells) was 39.6 µM. The viability at 48 h, 1 µM in “in vitro [6]” turned out to be 100%. In “in vitro [6]”, this compound returned a viability at 48 h, 3 µM of 99.3%. In data set [3], the AC50 was 4.85 µM. The “HepG2 viability signal, 1 uM, repeat 2” value with HepG2-A16-CD81EGFP cells (setting [17]) is given as 96.20%. In the data set on HepG2-A16-CD81EGFP cells, the “HepG2 viability signal, 3 uM, repeat 2” value is listed as 99.98%.
